Measurements taken from US9447408B2, “Method of efficiently establishing induced pluripotent stem cells” (Kyoto University, priority 2010, dated 2016).

Key:
[1] = tested on: Mouse embryonic fibroblasts (MEFs); experiment: iPS cell establishment from Nanog-GFP reporter MEFs, 4 genes (Oct3/4, Sox2, Klf4, c-Myc) introduced, with p38 inhibitors; assay type: cell-based
Method: Mouse embryonic fibroblasts (MEFs) from a Nanog reporter mouse carrying Nanog-GFP—IRES-Puro^r [Okita K. et al, Nature 448, 313-317 (2007)] were transfected with four genes using a retrovirus to induce iPS cells.
Each retrovirus for reprogramming was prepared by transferring each of retroviral expression vectors (pMXs-Oct3/4, pMXs-Sox2, pMXs-Klf4, pMXs-cMyc:Cell, 126, 663-676 (2006)) to Plat-E cells (Morita, S. et al., Gene Ther. 7, 1063-1066) that had been seeded to a 6-well culture plate (Falcon) at 0.6×10^6 cells per well on the day before. The cells were cultured at 37° C. in the presence of 5% CO2 using DMEM/10% FCS [a culture broth prepared by adding 10% fetal calf serum to DMEM (Nacalai Tesque)]. To facilitate vector transfer, 4.5 μL of FuGene6 transfection reagent (Roche) was placed in 100 μL of Opti-MEM I Reduced-Serum Medium (Invitrogen), and the medium was allowed to stand at room temperature for 5 minutes. Subsequently, 1.5 μg of each expression vector was added, and the medium was allowed to further stand at room temperature for 15 minutes, after which they were added to the Plat-E culture broth. On day 2, the Plat-E supernatant was replaced with a fresh supply of the medium. On day 3, the culture supernatant was recovered and filtered through a 0.45 μm sterile filter (Whatman), and polybrene (Nacalai) was added at 4 μg/mL to yield a viral liquid.
Mouse embryonic fibroblasts (MEFs) were isolated from a fetal Nanog reporter mouse (13.5 days after fertilization). […] Not expressing the puromycin resistance gene as well, MEFs are susceptible to the antibiotic puromycin. As such, MEFs were seeded to a 6-well culture plate (Falcon), previously coated with 0.1% gelatin (Sigma), at 1.0×10^5 cells per well. DMEM/10% FCS served as the culture broth at 37° C. in the presence of 5% CO2. The following day, each retrovirus liquid was added, and this was followed by overnight infection to introduce the genes.
On day 1 after the viral infection, the medium for the MEFs was removed, and the cells were washed by the addition of 1 mL of PBS. After removing the PBS, 0.25% Trypsin/1 mM EDTA (Invitrogen) was added, and a reaction was carried out at 37° C. for about 5 minutes. After the cells floated up, the cells were suspended by the addition of an ES cell culture medium and 2500 cells were seeded to a 100 mm dish having mitomycin C-treated STO feeder cells seeded thereto previously. Cultivation was continued while replacing the ES cell culture medium with a fresh supply of the same medium every two days until a visible colony emerged.
To determine the effects of p38 inhibitors on the establishment of iPS cells by the introduction of the four mouse genes, cultivation was continued with the addition of 10 μM of the p38 inhibitor 5B202190, SB239063, or SB203580 (Calbiochem Company) to the medium per the schedule shown below. All these inhibitors were used in solution in DMSO. • 1. Oct3/4, Sox2, Klf4, c-Myc, each derived from mouse, saline • 2. Oct3/4, Sox2, Klf4, c-Myc, each derived from mouse, DMSO • 3. Oct3/4, Sox2, Klf4, c-Myc, each derived from mouse, SB202190 10 μM Day 1-4) • 4. Oct3/4, Sox2, Klf4, c-Myc, each derived from mouse, SB202190 10 μM (Day 1-8) • 5. Oct3/4, Sox2, Klf4, c-Myc, each derived from mouse, SB202190 10 μM (Day 9-16) • 6. Oct3/4, Sox2, Klf4, c-Myc, each derived from mouse, SB202190 10 μM (Day 1-16) • 7. Oct3/4, Sox2, Klf4, c-Myc, each derived from mouse, SB239063 10 μM (Day 1-4) • 8. Oct3/4, Sox2, Klf4, c-Myc, each derived from mouse, SB239063 10 μM (Day 1-8) • 9. Oct3/4, Sox2, Klf4, c-Myc, each derived from mouse, SB239063 10 μM (Day 9-16) • 10. Oct3/4, Sox2, Klf4, c-Myc, each derived from mouse, SB239063 10 μM (Day 1-16) • 11. Oct3/4, Sox2, Klf4, c-Myc, each derived from mouse, SB203580 10 μM (Day 1-4) • 12. Oct3/4, Sox2, Klf4, c-Myc, each derived from mouse, SB203580 10 μM (Day 1-8) • 13. Oct3/4, Sox2, Klf4, c-Myc, each derived from mouse, SB203580 10 μM (Day 9-16) • 14. […]

[2] = tested on: Mouse embryonic fibroblasts (MEFs); experiment: iPS cell establishment from MEFs, 3 genes (Oct3/4, Sox2, Klf4) introduced, with p38 inhibitors; assay type: cell-based; settings: 10 μM inhibitor added in the initial stage after the infection
Method: Three genes were introduced using a retrovirus by the same experimental procedures as the above. The cells were cultured at a cell density of 2×10^4 cells/10 cm dish, with the addition of 10 μM of SB202190, SB239063, or SB203580 (Calbiochem Company) to the medium per the schedule shown below, and the establishment efficiency was compared. • 1. Oct3/4, Sox2, Klf4, each derived from mouse, saline • 2. Oct3/4, Sox2, Klf4, each derived from mouse, DMSO • 3. Oct3/4, Sox2, Klf4, each derived from mouse, SB202190 10 μM (Day 1-4) • 4. Oct3/4, Sox2, Klf4, each derived from mouse, SB202190 10 μM (Day 1-8) • 5. Oct3/4, Sox2, Klf4, each derived from mouse, SB202190 10 μM (Day 9-16) • 6. Oct3/4, Sox2, Klf4, each derived from mouse, SB202190 10 μM (Day 1-16) • 7. Oct3/4, Sox2, Klf4, each derived from mouse, SB239063 10 μM (Day 1-4) • 8. Oct3/4, Sox2, Klf4, each derived from mouse, SB239063 10 μM (Day 1-8) • 9. Oct3/4, Sox2, Klf4, each derived from mouse, SB239063 10 μM (Day 9-16) • 10. Oct3/4, Sox2, Klf4, each derived from mouse, SB239063 10 μM (Day 1-16) • 11. Oct3/4, Sox2, Klf4, each derived from mouse, SB203580 10 μM (Day 1-4) • 12. Oct3/4, Sox2, Klf4, each derived from mouse, SB203580 10 μM (Day 1-8) • 13. Oct3/4, Sox2, Klf4, each derived from mouse, SB203580 10 μM (Day 9-16) • 14. Oct3/4, Sox2, Klf4, each derived from mouse, SB203580 10 μM (Day 1-16),

In the case of C[S+]([O-])c1ccc(-c2nc(-c3ccc(F)cc3)c(-c3ccncc3)[nH]2)cc1 (stereo not drawn) [SB203580, 4-(4-fluorophenyl)-2-(4-methylsulfinylphenyl)-5-(4-pyridyl)-1H-imidazole], the “effect on colony count when measured on day 28 after the infection” value ([1]; 10 μM inhibitor on days 1 to 4, counted day 28) is reported as “remarkable”, the “colony count compared with cells treated with physiological saline or DMSO” value ([1]; 10 μM inhibitor on days 1 to 4 after the infection, FIG. 1) is reported as “tended to increase” and the “number of positive cells compared with DMSO treatment” value [2] is reported as “increased”.
